From US11927589B2, “Carrier peptide fragment for nucleolar localization and use thereof” (TOAGOSEI CO., LTD., priority 2021, dated 2024)
FAM = FAM: 5(6)-carboxyfluorescein, a fluorescent dye

Legend:
HeLa cells [1] = test: Evaluation of cell membrane permeability by flow cytometry (Test 1); details: 10 μM, 20 hours incubation
Protocol: HeLa cells were cultured in a DMEM (Dulbecco's modified Eagle's medium (Cat No. 043-30085 commercially available from FUJIFILM Wako Pure Chemical Corporation)) containing 10% FBS (fetal bovine serum), which is a general culture medium.
HeLa cells adhered to a culture plate were washed with PBS and a 0.25% trypsin/EDTA solution was then added, and the cells were incubated at 37° C. for 3 minutes. After the incubation, a 10% FBS-containing DMEM was added, trypsin was inactivated, and centrifugation was then performed at 150×g for 5 minutes to precipitate cells. […]
For the obtained cells (cell pellets), the cell permeability of Sample 1 was analyzed using a flow cytometer. […]
Using the flow cytometer, gating was performed based on forward scatter (FSC) and side scatter (SSC), a gate was set for a cell population to be analyzed, and the fluorescent intensity was measured for the cell population within such a gate. […] For measurement of the fluorescent intensity, a fluorescence detector FL2 (optimal detection wavelength of about 543 nm) of the flow cytometer that can detect a fluorescence wavelength of FAM was used. The measurement results were analyzed using commercially available analysis software “FlowJo (registered trademark)” (commercially available from TreeStar) to obtain a mean fluorescent intensity (MFI) of the cell population to be measured.

[2] = Cytotoxicity examination by the inventors; type: cell-based
Protocol: In all of the amino acid sequences shown in SEQ ID NOs 1 to 4, 11 amino acid residues among 13 amino acid residues are composed of basic amino acids (arginine and lysine). […] On the other hand, in the carrier peptide fragment composed of any of the amino acid sequences shown in SEQ ID NOs 1 to 4, the inventors have confirmed through examination that, even if the concentration of the carrier peptide fragment is 100 μM, there is almost no cytotoxicity, and the cytotoxicity is much lower than that of R8. […] Although the details of the mechanism are not clear, in the carrier peptide fragment disclosed here, it is estimated that inclusion of a threonine residue and a leucine residue which are neutral amino acids at the 4th and 5th positions in addition to basic amino acids contributes to reduction of cytotoxicity.

HeLa cells [3] = test: Intracellular localization by confocal laser scanning microscopy (Test 2); type: cell-based, human; details: 5 μM, 20 hours, methanol-fixed, DAPI/FAM merged images
Protocol: In this test, localization of Samples 1 to 5 in HeLa cells was analyzed. HeLa cells were seeded on collagen-coated 8-well slides at about 2×10^4 cells/well, and cultured overnight in the presence of 5% CO2 at 37° C. A 10% FBS-containing DMEM was used as the cell culture solution.
Then, the supernatant (culture solution) was removed, ice-cooled PBS was added, and washing on ice was performed three times. Then, ice-cooled methanol was added, the sample was left at −20° C. for 10 minutes, and the cells were immobilized. Then, methanol was removed, and washing was then performed three times with ice-cooled PBS. Then, a DAPI-containing encapsulant (commercially available from ThemoFisher Scientific) and a cover glass were used for encapsulation and fluorescence observation was performed under a confocal laser scanning microscope. […] Here, all FIGS. 2A to 2E show images in which fluorescent images of DAPI and FAM were merged.

**Q.** With 5(6)-carboxyfluorescein [Example 6] as the molecule, how does the “relative value of MFI (mean fluorescent intensity), MFI value of Example 6 set to 1” value (HeLa cells [1]; flow cytometer FL2) read?
**A.** The value was 1.

**Q.** With “Ac-KKRTLRKKKRKKR-FAM (Ac-KKRTLRKKKRKKR-{FAM}) [Example 1]” as the molecule, how does the “MFI value compared with the MFI value of Example 5” value (HeLa cells [1]) read?
**A.** Its value is “more than three times as high”.

**Q.** With `N=C(N)NCCC[C@H](NC(=O)[C@H](CCCNC(=N)N)NC(=O)[C@H](CCCNC(=N)N)NC(=O)[C@H](CCCNC(=N)N)NC(=O)[C@H](CCCNC(=N)N)NC(=O)[C@H](CCCNC(=N)N)NC(=O)[C@H](CCCNC(=N)N)NC(=O)[C@@H](N)CCCNC(=N)N)C(=O)O` [Example R8, octaarginine] as the molecule, how does the cytotoxicity [2] read?
**A.** Its cytotoxicity is “relatively high”.

**Q.** Which “fluorescence of FAM observed in the nucleolus” value (HeLa cells [3]) does the source give for “Ac-KKRTLRKNDRKKR-FAM (Ac-KKRTLRKNDRKKR-{FAM}) [Example 5]” here?
**A.** The value was “slightly observed in the nucleolus”.
